What was measured:
[1] = Inhibition of Plasmodium falciparum recombinant M17 leucyl aminopeptidase expressed in Escherichia coli assessed as conversion of L-leucine-7-amido-4-methylcoumarin hydrochloride to NHMec preincubated for 10 mins prior to substrate addition by Dixon plot analysis
[2] = Inhibition of Plasmodium falciparum recombinant M1 aminopeptidase expressed in Escherichia coli assessed as conversion of L-leucine-7-amido-4-methylcoumarin hydrochloride to NHMec preincubated for 10 mins prior to substrate addition by Dixon plot analysis

Row | SMILES | Ki [1] [µM] | Ki [2] [µM]
1 | N=C(N)Nc1cccc(C(N)P(=O)(O)O)c1 (stereo unspecified) | 0.16 | > 1000
2 | N=C(N)NCCCCC(N)P(=O)(O)O (stereo unspecified) | 268 | 11
3 | NCCCC(N)P(=O)(O)O (stereo unspecified) | > 1000 | > 1000
4 | N=C(N)Nc1ccc(CC(N)P(=O)(O)O)cc1 (stereo unspecified) | 63 | > 1000
5 | N=C(N)Nc1ccc(C(N)P(=O)(O)O)cc1 (stereo unspecified) | 1.8 | 127
6 | NC(c1ccc(-n2cccn2)cc1)P(=O)(O)O (stereo unspecified) | 0.011 | 104
7 | N=C(N)c1ccc(C(N)P(=O)(O)O)cc1 (stereo unspecified) | > 1000 | 345
8 | NC(N)=NCCCC(N)P(=O)(O)O (stereo unspecified) | > 1000 | 193
